For experiment [1], the system named is Nucleic Acid. The experiment in a line: Induction of DNA cleavage in supercoiled pGL2 DNA assessed as open circular DNA form-2 under hypoxic condition with NADPH:cytochrome P450 enzyme system at 5 to 25 uM after 16 hrs by agarose gel electrophoresis. The experiment is classed as nucleic-acid assay.
The test system of experiment [2] is V79. The experiment in a line: Hypoxic cytotoxicity ratio, concentration required to kill 99% chinese hamster V79 cells under aerobic condition to hypoxic condition. The experiment is classed as functional, Cricetulus griseus.
The subject of experiment [3] is V79. The experiment in a line: Cytotoxicity against chinese hamster V79 cells under anaerobic condition at 2.0 uM after 7 days by crystal violet staining. The experiment is classed as functional, Cricetulus griseus.
In experiment [4] the test system is V79. The experiment in a line: Cytotoxicity against chinese hamster V79 cells under aerobic condition at 30 uM after 7 days by crystal violet staining. The experiment is classed as functional, Cricetulus griseus.
For experiment [5], the system named is Nucleic Acid. Put plainly: Induction of DNA cleavage in supercoiled pGL2 DNA assessed as open circular DNA form-2 under hypoxic condition with NADPH:cytochrome P450 enzyme system at 25 uM after 16 hrs by agarose gel electrophoresis in presence of radical scavenging agent t-butanol. The format is nucleic-acid assay.
For experiment [6], the system named is Nucleic Acid. The experiment in a line: Induction of DNA cleavage in supercoiled pGL2 DNA assessed as open circular DNA form-2 under hypoxic condition with NADPH:cytochrome P450 enzyme system at 25 uM after 16 hrs by agarose gel electrophoresis in presence of radical scavenging agent methanol. The format is nucleic-acid assay.
The test system of experiment [7] is Nucleic Acid. The experiment in a line: Induction of DNA cleavage in supercoiled pGL2 DNA assessed as open circular DNA form-2 under hypoxic condition with xanthine/xanthine oxidase enzyme system at 20 uM after 16 hrs by agarose gel electrophoresis. The format is nucleic-acid assay.
Experiment [8] deals with Nucleic Acid. Put plainly: Induction of DNA cleavage in supercoiled pGL2 DNA assessed as open circular DNA form-2 under hypoxic condition with NADPH:cytochrome P450 enzyme system at 25 uM after 16 hrs by agarose gel electrophoresis in presence of radical scavenging agent mannitol. The format is nucleic-acid assay.
Experiment [9] concerns Nucleic Acid. The experiment in a line: Induction of DNA cleavage in supercoiled pGL2 DNA assessed as open circular DNA form-2 under hypoxic condition with NADPH:cytochrome P450 enzyme system at 25 uM after 16 hrs by agarose gel electrophoresis in presence of radical scavenging agent DMSO. The experiment is classed as nucleic-acid assay.
The test system of experiment [10] is V79. The experiment in a line: Cytotoxicity against chinese hamster V79 cells under anaerobic condition at 0.21 uM after 7 days by crystal violet staining. The experiment is classed as functional, Cricetulus griseus.
Experiment [11] deals with V79. Put plainly: Cytotoxicity against chinese hamster V79 cells under aerobic condition at 2.5 uM after 7 days by crystal violet staining. The experiment is classed as functional, Cricetulus griseus.
Experiment [12] concerns Nucleic Acid. Put plainly: Induction of DNA cleavage in supercoiled pGL2 DNA assessed as open circular DNA form-2 under hypoxic condition with NADPH:cytochrome P450 enzyme system at 25 uM after 16 hrs by agarose gel electrophoresis in presence of radical scavenging agent ethanol. The format is nucleic-acid assay.

Activity calls are given as the source filed them. The calls are words filed in the database; no cut-off is given here.

In the case of `O=C(c1cccs1)c1c(C(F)(F)F)nc2ccc(Cl)cc2[n+]1[O-]`, the result in the experiment with Nucleic Acid [1] was inactive.
On to `Nc1n[n+]([O-])c2ccccc2[n+]1[O-]` [TIRAPAZAMINE], for which the Ratio with V79 [2] amounted to 75. For the same molecule, the Activity in the experiment with V79 [3] and in the experiment on V79 [4] was 99% each time.
On to `O=C(c1cccs1)c1nc2cc(Cl)ccc2[n+]([O-])c1C(F)(F)F`, for which, in the experiment with Nucleic Acid [1], the outcome was inactive.
Regarding `O=C(c1cccs1)c1c(C(F)(F)F)[n+]([O-])c2ccc(Cl)cc2[n+]1[O-]`, the result with Nucleic Acid [5], with Nucleic Acid [6], in the experiment on Nucleic Acid [8], in the experiment with Nucleic Acid [9] and with Nucleic Acid [12] was inactive. Moreover, the outcome in the experiment on Nucleic Acid [7] and with Nucleic Acid [1] was Active. The Ratio in the experiment with V79 [2] stood at 16. Also, the Activity in the experiment on V79 [10] and in the experiment with V79 [11] was 99% each time.
